Reference: PMC5814047, “Peptidic inhibitors of insulin-degrading enzyme with potential for dermatological applications discovered via phage display” (PLoS ONE, 2018)
Values joined by “and” are separate entries in the source; they are usually repeats but may differ in a detail not shown here. Equal entries are not always repeated. Where two headings read alike, the source gives them in different places. Each block holds one molecule with its values, some of them ahead of it. Bridge positions count the residues as written; N and C are the ends. Ends that are not written are not given here. Peptide text beside a SMILES is read from it.

Experiments:
[1] = target: T1, IDE (Homo sapiens, UniProt P14735); assay: biochemical; conditions: for IC50 <500 uM?: initial test at 500 uM
T1 construct: made in house; host or cells: bacteria
T1 sequence (P14735 1-1019): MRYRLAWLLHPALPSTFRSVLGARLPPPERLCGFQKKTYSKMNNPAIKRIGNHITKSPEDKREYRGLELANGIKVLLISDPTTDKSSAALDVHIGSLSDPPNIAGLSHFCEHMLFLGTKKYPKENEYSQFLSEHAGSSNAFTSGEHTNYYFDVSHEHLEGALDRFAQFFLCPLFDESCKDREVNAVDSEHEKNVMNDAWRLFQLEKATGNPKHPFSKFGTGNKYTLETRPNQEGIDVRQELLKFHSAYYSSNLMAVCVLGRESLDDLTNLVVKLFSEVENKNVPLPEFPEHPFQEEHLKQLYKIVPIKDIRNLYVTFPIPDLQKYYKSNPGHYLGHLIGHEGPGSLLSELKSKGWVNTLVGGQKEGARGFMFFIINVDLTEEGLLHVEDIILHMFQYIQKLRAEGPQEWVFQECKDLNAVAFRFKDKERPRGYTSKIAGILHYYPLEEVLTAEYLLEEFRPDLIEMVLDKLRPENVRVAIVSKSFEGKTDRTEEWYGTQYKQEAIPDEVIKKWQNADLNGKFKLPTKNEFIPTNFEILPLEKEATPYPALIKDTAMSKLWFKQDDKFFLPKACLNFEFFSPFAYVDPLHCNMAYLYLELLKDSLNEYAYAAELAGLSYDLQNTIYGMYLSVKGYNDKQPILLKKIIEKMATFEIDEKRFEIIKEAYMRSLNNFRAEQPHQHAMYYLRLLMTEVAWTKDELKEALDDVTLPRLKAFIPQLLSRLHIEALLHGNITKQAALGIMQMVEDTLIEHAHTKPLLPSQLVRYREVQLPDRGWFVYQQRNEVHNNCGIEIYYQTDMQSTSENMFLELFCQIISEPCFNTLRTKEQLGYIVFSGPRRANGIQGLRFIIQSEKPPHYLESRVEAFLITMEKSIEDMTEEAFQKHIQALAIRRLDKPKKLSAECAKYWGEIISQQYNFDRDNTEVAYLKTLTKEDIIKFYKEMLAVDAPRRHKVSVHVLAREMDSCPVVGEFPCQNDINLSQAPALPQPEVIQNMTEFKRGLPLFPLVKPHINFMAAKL
Method in brief: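 Recombinant human IDE (1 nM, bacterially expressed) degraded FRET1 substrate (5 μM), fluoresceinated biotinylated amyloid β (500 nM) or human insulin (50 nM) in PBS with 0.05% BSA. Peptides tested included N-acetylated and C-amidated variants.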

[2] = target: T1, IDE; assay: biochemical; conditions: for IC50 <10 uM?: initial test at 10 uM using insulin (100 nM); for remaining activity at 0.016 µM: Cmpd 0.016 uM; for remaining activity at 0.08 µM: Cmpd 0.08 uM; for remaining activity at 0.4 µM: Cmpd 0.4 uM; for remaining activity at 2 µM: Cmpd 2 uM; for remaining activity at 10 µM: Cmpd 10 uM; for IC50: insulin ELISA assay, dose-response
Method in brief: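 Bacterially expressed recombinant human IDE (1 nM) in PBS with 0.05% BSA. Substrates: FRET1 (5 μM; fluorescence, ex 340/em 420 nm), fluoresceinated biotinylated amyloid β-protein (500 nM; fluorescence polarization, ex 488/em 525 nm), or recombinant human insulin (50 nM; ELISA).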

[3] = dose-response, individual runs, read-out: Percent Activity (normalized source data)
[4] = dose-response, 125 uM, individual runs, read-out: Percent Activity (normalized source data)
[5] = initial test, percent of initial velocity relative to DMSO-only controls, N 4, read-out: Percent activity at 500 uM, Mean
[6] = judged as IC50 <100 uM?, N 4, read-out: Percent activity at 500 uM, Mean
[7] = insulin ELISA, Runs 1-3, read-out: Percent Activity (normalized source data)

- remaining activity at 0.0005 µM ([1]; FRET1, P12-3A 0.0005 uM, Replicates 4-6, read-out: Percent Activity (normalized source data)): 109%
- remaining activity at 0.0016 µM ([1]; FRET1, P12-3A 0.0016 uM, Replicates 4-6, read-out: Percent Activity (normalized source data)): 115%
- remaining activity at 0.005 µM ([1]; FRET1, P12-3A 0.005 uM, Replicates 4-6, read-out: Percent Activity (normalized source data)): 119%
- remaining activity at 0.05 µM ([1]; FRET1, P12-3A 0.050 uM, Replicates 4-6, read-out: Percent Activity (normalized source data)): 134%
- remaining activity at 0.12 µM ([1]; FRET1, P12-3A 0.12 uM, Replicates 1-3, read-out: Percent Activity (normalized source data)): 81.6%
- remaining activity at 0.24 µM ([1]; FRET1, P12-3A 0.24 uM, Replicates 1-3, read-out: Percent Activity (normalized source data)): 82.7%
- remaining activity at 0.49 µM ([1]; FRET1, P12-3A 0.49 uM, Replicates 1-3, read-out: Percent Activity (normalized source data)): 73.4%
- remaining activity at 0.98 µM ([1]; FRET1, P12-3A 0.98 uM, Replicates 1-3, read-out: Percent Activity (normalized source data)): 62.8%
- remaining activity at 3.91 µM ([1]; FRET1, P12-3A 3.91 uM, Replicates 1-3, read-out: Percent Activity (normalized source data)): 45.2%
- remaining activity at 7.81 µM ([1]; FRET1, P12-3A 7.81 uM, Replicates 1-3, read-out: Percent Activity (normalized source data)): 33%
- remaining activity at 15.6 µM ([1]; FRET1, P12-3A 15.6 uM, Replicates 1-3, read-out: Percent Activity (normalized source data)): 38.9%
- remaining activity at 16 µM ([1]; FRET1, P12-3A 16 uM, Replicates 4-6, read-out: Percent Activity (normalized source data)): 45.2%
- remaining activity at 31.2 µM ([1]; FRET1, P12-3A 31.2 uM, Replicates 1-3, read-out: Percent Activity (normalized source data)): 30.6%
- remaining activity at 50 µM ([1]; FRET1, P12-3A 50 uM, Replicates 4-6, read-out: Percent Activity (normalized source data)): 31.6%
- remaining activity at 62.5 µM ([1]; FRET1, P12-3A 62.5 uM, Replicates 1-3, read-out: Percent Activity (normalized source data)): 23.7%
- remaining activity at 125 µM ([1]; FRET1, P12-3A 125 uM, Replicates 1-3, read-out: Percent Activity (normalized source data)): 20.1%
- remaining activity at 158 µM ([1]; FRET1, P12-3A 158 uM, Replicates 4-6, read-out: Percent Activity (normalized source data)): 23.8%
- remaining activity at 250 µM ([1]; FRET1, P12-3A 250 uM, Replicates 1-3, read-out: Percent Activity (normalized source data)): 10.4%
- remaining activity at 0.12207 µM [1, 3]: 87.1%
- remaining activity at 0.488281 µM [1, 3]: 82.8%
- remaining activity at 1.95312 µM [1, 3]: 78.7%
- remaining activity at 7.8125 µM [1, 3]: 74%
- remaining activity at 31.25 µM [1, 3]: 40.2%
- remaining activity at 125 µM [1, 4]: 9.83%
- IC50 <500 uM? [1]: YES
- remaining activity at 500 µM [1, 5]: 3.6%
- remaining activity at 500 µM [1, 6]: 17.1%
- Hill slope ([2]; dose-response of P12-3A against insulin degradation by IDE, Fig 3B): 0.91 ± 0.15
- IC50 <10 uM? [2]: YES
- remaining activity at 0.016 µM [2, 7]: 90.2%
- remaining activity at 0.08 µM [2, 7]: 84.4%
- remaining activity at 0.4 µM [2, 7]: 76.5%
- remaining activity at 2 µM [2, 7]: 62.5%
- remaining activity at 10 µM [2, 7]: 47.7%
- remaining activity at 50 µM ([2]; insulin ELISA, Cmpd 50 uM, Runs 1-3, read-out: Percent Activity (normalized source data)): 28.6%
- remaining activity at 0.0316228 µM ([2]; resynthesized P12-3A 0.0316228 uM, individual replicates, read-out: Percent Activity (normalized source data)): 98.5%
Molecule: CC(C)C[C@H](NC(=O)[C@H](CO)NC(=O)[C@@H](N)CCC(N)=O)C(=O)N1CCC[C@H]1C(=O)N[C@@H](Cc1c[nH]c2ccccc12)C(=O)N[C@H]1CSSC[C@@H](C(=O)N[C@H](C(=O)N[C@H](C(N)=O)[C@@H](C)O)C(C)C)NC(=O)[C@H](Cc2c[nH]cn2)NC(=O)[C@@H]2CCCN2C(=O)[C@H](Cc2ccc(O)cc2)NC1=O [P12-3A] (H-QSLPWCYPHCVT-NH2; disulfide 6-10 (inferred))

- remaining activity at 0.12207 µM [1, 3]: 91.1%
- remaining activity at 0.488281 µM [1, 3]: 84.5%
- remaining activity at 1.95312 µM [1, 3]: 84.4%
- remaining activity at 7.8125 µM [1, 3]: 65.6%
- remaining activity at 31.25 µM [1, 3]: 34.6%
- remaining activity at 125 µM [1, 4]: 11%
- IC50 <500 uM? [1]: YES
- remaining activity at 500 µM [1, 5]: 2%
- remaining activity at 500 µM [1, 6]: 13.9%
- IC50 <10 uM? [2]: YES
- remaining activity at 0.016 µM [2, 7]: 66.3%
- remaining activity at 0.08 µM [2, 7]: 72.2%
- remaining activity at 0.4 µM [2, 7]: 62.9%
- remaining activity at 2 µM [2, 7]: 64.4%
- remaining activity at 10 µM [2, 7]: 37.6%
Molecule: CC(C)C[C@H](NC(=O)[C@H](CO)NC(=O)[C@@H](N)CCC(N)=O)C(=O)N1CCC[C@H]1C(=O)N[C@@H](Cc1c[nH]c2ccccc12)C(=O)N[C@H]1CSSC[C@@H](C(=O)N[C@H](C(=O)N[C@H](C(=O)O)[C@@H](C)O)C(C)C)NC(=O)[C@H](Cc2c[nH]cn2)NC(=O)[C@@H]2CCCN2C(=O)[C@H](Cc2ccc(O)cc2)NC1=O [P12-3] (H-QSLPWCYPHCVT-OH; disulfide 6-10 (inferred))

- Ki ([1]; Cheng-Prusoff, KM 10 uM, substrate concentration 5 uM, read-out: Ki values, Mean): 5300 nM
- remaining activity at 0.488281 µM [1, 3]: 88.4%
- remaining activity at 500 µM ([1]; dose-response, 500 uM, individual runs, read-out: Percent Activity (normalized source data)): 1.11%
- IC50 ([1]; dose-response, FRET1, read-out: IC50s, Mean): 7950 nM
- IC50 <500 uM? [1]: YES
- Ki ([1]; substrate FRET1 5 μM, Ki from IC50 with the Cheng-Prusoff equation, read-out: Ki FRET1): 5000 ± 300 nM
- IC50 <10 uM? [2]: YES
- IC50 ([2]; Replicates 1-3, read-out: IC50s, individual replicates): 3220 nM and 1930 nM and 2380 nM
- IC50 ([2]; N=3, read-out: IC50s, Mean): 2510 nM
- Ki ([2]; substrate recombinant human insulin 50 nM, Ki from IC50 with the Cheng-Prusoff equation): 1300 ± 200 nM
Molecule: VHWDFRQWWQPS-NH2 [P12-1A]
